Assay results taken from patent publication US8951580B2, “Methods for improving the safety of treating pediatric patients who are candidates for inhaled nitric oxide treatment” (priority 2009, dated 2015).

Assays:
[1] = tested on: pulmonary vasculature of children with pulmonary hypertension; test: INOT22 study: acute pulmonary vasodilator testing during cardiac catheterization; conditions: iNO 80 ppm; for SVRI Change From Baseline, Mean / SVRI Change From Baseline, Median / SVRI Change From Baseline, Minimum / SVRI Change From Baseline, maximum / Ratio PVRI/SVRI Change from Baseline, Maximum / Ratio PVRI/SVRI Change from Baseline, Mean / Ratio PVRI/SVRI Change from Baseline, Median / Ratio PVRI/SVRI Change from Baseline, Minimum / Ratio PVRI/SVRI Percent Change from Baseline, Maximum / Ratio PVRI/SVRI Percent Change from Baseline, Mean / Ratio PVRI/SVRI Percent Change from Baseline, Median / Ratio PVRI/SVRI Percent Change from Baseline, Minimum / Ratio PVRI/SVRI Post Treatment, Maximum / Ratio PVRI/SVRI Post Treatment, Mean / Ratio PVRI/SVRI Post Treatment, Median / Ratio PVRI/SVRI Post Treatment, Minimum / SVRI Post-treatment, Mean / SVRI Post-treatment, Median / SVRI Post-treatment, Minimum / SVRI Post-treatment, maximum: ITT, each treatment 10 minutes; for SVRI Change From Baseline, Mean / SVRI Change From Baseline, Median / SVRI Change From Baseline, Minimum / SVRI Change From Baseline, maximum: baseline room air; for tolerability: INOT22 diagnostic study, children with pulmonary hypertension
Procedure: The INOT22 study, entitled “Comparison of supplemental oxygen and nitric oxide for inhalation plus oxygen in the evaluation of the reactivity of the pulmonary vasculature during acute pulmonary vasodilatory testing” was conducted both to assess the safety and effectiveness of INOmax® as a diagnostic agent in patients undergoing assessment of pulmonary hypertension (primary endpoint), and to confirm the hypothesis that iNO is selective for the pulmonary vasculature (secondary endpoint).
In particular, the INOT22 protocol studied consecutive children undergoing cardiac catheterization that were prospectively enrolled at 16 centers in the US and Europe. Inclusion criteria: 4 weeks to 18 years of age, pulmonary hypertension diagnosis, i.e. either idiopathic pulmonary hypertension (IPAH) or related to congenital heart disease (CHD) (repaired or unrepaired) or cardiomyopathy, with pulmonary vascular resistance index (PVRI)>3 u−m^2. Later amendments, as discussed herein, added an additional inclusionary criterion of a PCWP less than 20 mm Hg. Patients were studied under general anaesthesia, or with conscious sedation, according to the practice of the investigator. Exclusion criteria: focal infiltrates on chest X-ray, history of intrinsic lung disease, and/or currently taking PDE-5 inhibitors, prostacyclin analogues or sodium nitroprusside. The study involved supplemental O2 and NO for inhalation plus O2 in the evaluation of the reactivity of the pulmonary vasculature during acute pulmonary vasodilator testing. Consecutive children undergoing cardiac catheterization were prospectively enrolled at 16 centers in the US and Europe. […] A specific secondary endpoint was evaluated in study INOT22 to provide a more definitive evaluation.
The primary objective was to compare the response frequency with iNO and O2 vs. O2 alone; in addition, all subjects were studied with iNO alone. Patients were studied during five periods: Baseline 1, Treatment Period 1, Treatment Period 2, Baseline 2 and Treatment Period 3. All patients received all three treatments; treatment sequence was randomized by center in blocks of 4; in Period 1, patients received either NO alone or O2 alone, and the alternate treatment in Period 3. All patients received the iNO and O2 combination treatment in Period 2. Once the sequence was assigned, treatment was unblinded. Each treatment was given for 10 minutes prior to obtaining hemodynamic measurements, and the Baseline Period 2 was at least 10 minutes.

[2] = tested on: term and near-term neonates with pulmonary hypertension and hypoxic respiratory failure; conditions: Inhaled NO n=97; number of patients (%); cited from earlier work
[3] = tested on: neonates with hypoxic respiratory failure; conditions: n=114, number (%), cited from earlier work

Row | Compound | SVRI Change From Baseline, Mean [1] [WU · m^2] | SVRI Change From Baseline, Median [1] [WU · m^2] | SVRI Change From Baseline, Minimum [1] [WU · m^2] | SVRI Change From Baseline, maximum [1] [WU · m^2] | Ratio PVRI/SVRI Change from Baseline, Maximum [1] | Ratio PVRI/SVRI Change from Baseline, Mean [1] | Ratio PVRI/SVRI Change from Baseline, Median [1] | Ratio PVRI/SVRI Change from Baseline, Minimum [1] | Ratio PVRI/SVRI Percent Change from Baseline, Maximum [1] [%] | Ratio PVRI/SVRI Percent Change from Baseline, Mean [1] [%] | Ratio PVRI/SVRI Percent Change from Baseline, Median [1] [%] | Ratio PVRI/SVRI Percent Change from Baseline, Minimum [1] [%] | Ratio PVRI/SVRI Post Treatment, Maximum [1] | Ratio PVRI/SVRI Post Treatment, Mean [1] | Ratio PVRI/SVRI Post Treatment, Median [1] | Ratio PVRI/SVRI Post Treatment, Minimum [1] | SVRI Post-treatment, Mean [1] [WU · m^2] | SVRI Post-treatment, Median [1] [WU · m^2] | SVRI Post-treatment, Minimum [1] [WU · m^2] | SVRI Post-treatment, maximum [1] [WU · m^2] | further results
1 | O=O [O2, oxygen] | 1.3 | 1.0 | −18.1 | 17.7 | 2.0 | −0.1 | −0.1 | −1.6 | 93.3 | −19.3 | −21.3 | −122.7 | 1.4 | 0.4 | 0.4 | 0.0 | 18.9 | 17.1 | 3.9 | 43.6 | 
2 | nitric oxide [NO] | −0.2 | 0.2 | −12.5 | 12.7 | 1.6 | −0.1 | 0.0 | −4.4 | 294.1 | −6.2 | −13.8 | −256.1 | 2.2 | 0.5 | 0.3 | −1.2 | 17.8 | 15.4 | 3.3 | 50.7 | Adverse Reaction: Atelectasis [2]: 7 (6.5%); Adverse Reaction: Bilirubinemia [2]: 7 (6.5%); Adverse Reaction: Hypokalemia [2]: 9 (8.3%); Adverse Reaction: Hypotension [2]: 6 (5.6%); Adverse Reaction: Thrombocytopenia [2]: 16 (14.8%); Death or ECMO ([3]; 100% O2 with 20 ppm NO for up to 14 days, primary end point): 52 (46%); Death ([3]; 100% O2 with 20 ppm NO): 16 (14%); ECMO ([3]; 100% O2 with 20 ppm NO): 44 (39%); tolerability [1]: well-tolerated; tolerability ([1]; listed as iNO): well-tolerated in most patients
